According to US20220096509A1, “Reformulating Hospital Gentamicin to reduce the risk of hearing loss while maintaining antimicrobial activity” (priority 2019, published 2022):
Where “and” joins values, the source holds several entries; their conditions need not be identical. Identical values can stand only once. Entries after “also recorded” stand apart in the source; their conditions may differ. Like-named read-outs stand apart in the source and are kept apart here.

What was measured:
[1] = system: rat cochlear hair cells; details: for EC50: read-out: EC50±SE, hair cell survival (ototoxicity)
[2] = system: P. aeruginosa; test: MIC against P. aeruginosa strains; assay type: cell-based
From the text: (§1) The colors represent different species, the numbers in the columns refer to the number of individual strains inhibited, where black=S. aureus, grey=E. coli, blue=K. pneumoniae, white=P. aeruginosa. […] (2B) The MIC values for each strain (diamond symbols) split by species, where Hospital=red, C1=orange, blue=C1a, cyan=C2, green=C2a, purple=C2b (grey scale only). Filled symbols indicate strains with antimicrobial resistance. The box indicates the 25-75 percentiles, stars indicate geometric means, *=P<0.05, **=P<0.01 tested using Mann Whitney U Non-Parametric analysis. […] (2C) The antimicrobial breadths of the impurities relative to a hospital bottle. […] (2D) The MIC values for each strain split by species.
(§2) The antimicrobial activity of the main components of gentamicin were studied relative to a single hospital bottle (gentamicin mixture) from Stanford University Hospital.

[3] = system: S. aureus; assay type: cell-based; details: for antimicrobial potency relative to hospital bottle: Mann Whitney U Test
From the text: as §1, §2

[4] = system: S. aureus, E. coli, K. pneumoniae, P. aeruginosa strains; test: Antimicrobial breadth and potency (MIC) across 40 bacterial strains; assay type: cell-based
From the text: as §1, §2

[5] = system: K. pneumoniae; test: MIC against K. pneumoniae strains; assay type: cell-based; details: Mann Whitney U Test
From the text: (§3) […]. The colors represent different species, the numbers in the columns refer to the number of individual strains inhibited, where black=S. aureus, grey=E. coli, blue=K. pneumoniae, white=P. aeruginosa. The hospital bottle inhibits 35/40 strains tested, with the C-components inhibiting 31-35 strains. (2B) The MIC values for each strain (diamond symbols) split by species, where Hospital=red, C1=orange, blue=C1a, cyan=C2, green=C2a, purple=C2b (grey scale only). Filled symbols indicate strains with antimicrobial resistance. The box indicates the 25-75 percentiles, stars indicate geometric means, *=P<0.05, **=P<0.01 tested using Mann Whitney U Non-Parametric analysis. […] There are also some differences between individual components in S. aureus and P. aeruginosa. (2C) The antimicrobial breadths of the impurities relative to a hospital bottle. The hospital bottle inhibits 35/40 strains tested, with the impurities Gent B, Gent A, Gent X and G418 inhibiting 15-21 strains. One impurity, Sisomicin inhibited 35/40 strains. (2D) The MIC values for each strain split by species. […].

[6] = system: E. coli; test: MIC against E. coli strains; assay type: cell-based; details: Mann Whitney U Test
From the text: as §3

[7] = system: rat cochlear hair cells; test: tissue or blood; details: read-out: EC50±SE, hair cell survival (ototoxicity)
[8] = mid-apical region of the cochlea, n>5 per data point, logarithmic function best fit

Compound: CN[C@@H]1[C@@H](O)[C@@H](O[C@@H]2[C@@H](O)[C@H](O[C@H]3O[C@H]([C@H](C)N)CC[C@H]3N)[C@@H](N)C[C@H]2N)OC[C@]1(C)O [C2a, gentamicin C2a]
- ototoxicity relative to hospital bottle [1]: not significantly different from the hospital bottle
- EC50 [1, 8]: 614 ± 69 µM

Compound: CN[C@@H]1[C@@H](O)[C@@H](O[C@@H]2[C@@H](O)[C@H](O[C@H]3O[C@H]([C@@H](C)O)[C@@H](O)[C@H](O)[C@H]3N)[C@@H](N)C[C@H]2N)OC[C@]1(C)O [G418, geneticin, reference compound]
- ototoxicity relative to hospital bottle [1]: more ototoxic at lower doses than the hospital but requires a higher dose to kill all hair cells than the hospital

Compound: CNC[C@@H]1CC[C@@H](N)[C@@H](O[C@H]2[C@H](O)[C@@H](O[C@H]3OC[C@](C)(O)[C@H](NC)[C@H]3O)[C@H](N)C[C@@H]2N)O1 [C2b, gentamicin C2b]
- ototoxicity relative to hospital bottle [1]: less ototoxic than the hospital bottle
- EC50 [1, 8]: 1200 ± 114 µM

Compound: gentamicin C1a
- EC50 [1]: 816 ± 18 µM
- Geomean MIC [2]: 0.71 µg/mL
- antimicrobial potency relative to C1 component [2]: more antimicrobial than the C1 component
- Geomean MIC [3]: 0.29 µg/mL
- antimicrobial potency relative to C1 component [3]: more antimicrobial than the C1 component

Compound: CN[C@@H]1[C@@H](O)[C@@H](O[C@@H]2[C@@H](O)[C@H](O[C@H]3O[C@H]([C@@H](C)NC)CC[C@H]3N)[C@@H](N)C[C@H]2N)OC[C@]1(C)O [C1, gentamicin C1]
- ototoxicity relative to hospital bottle [1]: not significantly different from the hospital bottle
- EC50 [1, 8]: 755 ± 60 µM
- antimicrobial potency among the components [4]: lowest antimicrobial potency
- Geomean MIC ([2]; P. aeruginosa, n≥8 strains): 1.52 µg/mL
- antimicrobial potency relative to hospital bottle ([3]; S. aureus): less potent than the hospital bottle; also recorded: less antimicrobial than the hospital bottle
- Geomean MIC ([3]; S. aureus, n=10 strains): 0.53 µg/mL and 0.54 µg/mL

Compound: CN[C@@H]1[C@@H](O)[C@@H](O[C@@H]2[C@@H](O)[C@H](O[C@H]3O[C@H]([C@@H](C)N)CC[C@H]3N)[C@@H](N)C[C@H]2N)OC[C@]1(C)O [C2, gentamicin C2]
- ototoxicity among the drug components [1]: most ototoxic component
- EC50 [1, 8]: 402 ± 38 µM

Compound: CN[C@@H]1[C@@H](O)[C@@H](O[C@@H]2[C@@H](O)[C@H](O[C@H]3OC(CN)=CC[C@H]3N)[C@@H](N)C[C@H]2N)OC[C@]1(C)O [Sisomicin]
- ototoxicity relative to hospital bottle [1]: more ototoxic than the hospital
- antimicrobial potency relative to hospital bottle [5]: equi-potent to the hospital
- antimicrobial potency relative to hospital bottle [6]: equi-potent to the hospital
- number of strains inhibited (antimicrobial breadth) ([4]; 40 strains tested, breadth defined as MIC value ≤4μg/ml): 35/40
- antimicrobial potency relative to hospital bottle ([2]; P. aeruginosa, Mann Whitney U Test): more potent than the hospital
- EC50 [7]: 212 ± 7 µM
- antimicrobial potency relative to hospital bottle ([3]; S. aureus): more potent than the hospital

Compound: CN[C@@H]1[C@@H](O)[C@@H](O[C@@H]2[C@@H](O)[C@H](O[C@H]3O[C@H](CN)[C@@H](O)[C@H](O)[C@H]3O)[C@@H](N)C[C@H]2N)OC[C@]1(C)O [Gent B]
- antimicrobial potency relative to hospital bottle ([4]; all species tested, P<0.05, n≥8 strains): significantly less potent than the hospital bottle
